Reference: patent US6358885B1, “Substituted phenylheterocyclic herbicides” (Mississippi State University, priority 1992, dated 2002)

Legend:
cocklebur = assay: Test B preemergence/postemergence greenhouse plant response rating 0 to 10; assay type: in vivo, Xanthium pensylvanicum; conditions: 0 to 10 scale
In short: (§1)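 Both application timings were run together: seeds got compound preemergence, and established seedlings (two to eighteen cm) got it postemergence. Non-phytotoxic solvent carried the chemical. Ratings are visual, versus controls, at twelve to sixteen days.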

morningglory = assay: as above; assay type: in vivo, Ipomoea hederacea; conditions: 0 to 10 scale
In short: as §1

sugar beet = assay: as above; assay type: in vivo, Beta vulgaris; conditions: 0 to 10 scale
In short: as §1

ryegrass = assay: Test C preemergence/postemergence greenhouse plant response rating 0 to 100; assay type: in vivo, Lolium multiflorum; conditions: POSTEMERGENCE
In short: (§2)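 Compounds in non-phytotoxic solvent applied preemergence to sandy loam one day after planting, postemergence at the 1–4 leaf stage, or to ~2.5 cm floodwater over silt loam.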

blackgrass [1] = assay: as above; assay type: in vivo, Alopecurus myosuroides; conditions: POSTEMERGENCE; for Plant response rating, Blackgrass: 0 to 100 scale
In short: as §2

blackgrass [2] = assay: Test B preemergence/postemergence greenhouse plant response rating 0 to 10; assay type: in vivo, Alopecurus myosuroides; conditions: 0 to 10 scale
In short: as §1

wheat = assay: Test C preemergence/postemergence greenhouse plant response rating 0 to 100; assay type: in vivo, Triticum aestivum; conditions: POSTEMERGENCE; for Plant response rating, Wheat: 0 to 100 scale
In short: as §2

bedstraw = assay: Test B preemergence/postemergence greenhouse plant response rating 0 to 10; assay type: in vivo, Galium aparine; conditions: 0 to 10 scale
In short: as §1

pigweed = assay: Test C preemergence/postemergence greenhouse plant response rating 0 to 100; assay type: in vivo, Amaranthusretroflexus; conditions: POSTEMERGENCE; for Plant response rating Pigweed: 0 to 100 scale
In short: as §2

cotton = assay: as above; assay type: in vivo, Gossypium hirsutum; conditions: POSTEMERGENCE; for Plant response rating, Cotton: 0 to 100 scale
In short: as §2

barnyardgrass = assay: Test C flood test plant response rating 0 to 100; assay type: in vivo, Echinochloa crus-galli; conditions: for Plant response rating (0 to 100), Barnyardgrass: under POSTEMERGENCE head (flood test species); for Plant response rating, Barnyardgrass: flood test species listed under POSTEMERGENCE, 0 to 100 scale
Source text: The compounds evaluated in this test were formulated in a non-phytoxic solvent and applied to the soil surface before plant seedlings emerged (preemergence application), to water that covered the soil surface (flood application), and to plants that were in the one-to-four leaf stage (postemergence application). A sandy loam soil was used for the preemergence and postemergence tests, while a silt loam soil was used in the flood test. Water depth was approximately 2.5 cm for the flood test and was maintained at this level for the duration of the test. Plant species in the preemergence and postemergence tests consisted of barley (Hordeum vulgare), bedstraw (Galium aparine), blackgrass (Alopecurus myosuroides), chickweed (Stellaria media), corn (Zea mays), cotton (Gossypium hirsutum), crabgrass (Digitaria sanguinalis), downy brome (Bromus tectorum), giant foxtail (Setaria faberii), lambsquarters (Chenopodium album), morningglory (Ipomoea hederacea), pigweed ([…]), rape (Brassica napus), ryegrass (Lolium multiflorum), sorghum (Sorghum bicolor), soybean (Glycine max), speedwell (Veronica persica), sugar beet (Beta vulgaris), velvetleaf (Abutilon theophrasti), wheat (Triticum aestivum), wild buckwheat (Polygonum convolvulus), and wild oat (Avena fatua). All plant species were planted one day before application of the compound for the preemergence portion-of this test. Plantings of these species were adjusted to produce plants of appropriate size for the post-emergence portion of the test. […] All plant species were grown using normal greenhouse practices. Visual evaluations of injury expressed on treated plants, when compared to untreated controls, were recorded approximately fourteen to twenty one days after application of the test compound. […] A dash (-) response means no test result.

wild oat = assay: Test B preemergence/postemergence greenhouse plant response rating 0 to 10; assay type: in vivo, Avena fatua; conditions: 0 to 10 scale
In short: as §1

With `CC(C)OC(=O)COc1cc(-c2nn3c(c2Cl)CCCC3)c(F)cc1Cl` [Compound 39] the “Plant response rating, Cocklebur” value (cocklebur; POSTEMERGENCE, Rate 50 g/ha) was 10, the “Plant response rating, Cocklebur” value (cocklebur; POSTEMERGENCE, Rate 200 g/ha) was 10 and the “Plant response rating, Cocklebur” value (cocklebur; PREEMERGENCE, Rate 50 g/ha) was 0. The “Plant response rating, Cocklebur” value (cocklebur; Rate 200 g/ha, PREEMERGENCE) was 1, the “Plant response rating, Morningglory” value (morningglory; POSTEMERGENCE, Rate 50 g/ha) was 8 and the “Plant response rating, Morningglory” value (morningglory; PREEMERGENCE, Rate 50 g/ha) was 0. The “Plant response rating, Morningglory” value (morningglory; Rate 200 g/ha, POSTEMERGENCE) was 9, the “Plant response rating, Morningglory” value (morningglory; Rate 200 g/ha, PREEMERGENCE) was 2 and the “Plant response rating, Sugar beet” value (sugar beet; POSTEMERGENCE, Rate 50 g/ha) was 10. The “Plant response rating, Sugar beet” value (sugar beet; PREEMERGENCE, Rate 50 g/ha) was 8, the “Plant response rating, Sugar beet” value (sugar beet; Rate 200 g/ha, POSTEMERGENCE) was 10 and the “Plant response rating, Sugar beet” value (sugar beet; Rate 200 g/ha, PREEMERGENCE) was 10. For the same compound, the “Plant response rating Ryegrass” value (ryegrass; 125 g/ha, 0 to 100 scale) was 20, the “Plant response rating (0 to 100), Ryegrass” value (ryegrass; Rate 16 g/ha) was 10 and the “Plant response rating (0 to 100), Ryegrass” value (ryegrass; Rate 31 g/ha) was 10. The “Plant response rating, Blackgrass” value (blackgrass [1]; 62 g/ha) was 30, the “Plant response rating, Blackgrass” value (blackgrass [1]; 125 g/ha) was 40 and the “Plant response rating (0 to 100), Blackgrass” value (blackgrass [1]; Rate 16 g/ha) was 10. The “Plant response rating (0 to 100), Blackgrass” value (blackgrass [1]; Rate 31 g/ha) was 10, the “Plant response rating, Blackgrass” value (blackgrass [2]; POSTEMERGENCE, Rate 50 g/ha) was 4 and the “Plant response rating, Blackgrass” value (blackgrass [2]; POSTEMERGENCE, Rate 200 g/ha) was 4. The “Plant response rating, Blackgrass” value (blackgrass [2]; PREEMERGENCE, Rate 50 g/ha) was 0, the “Plant response rating, Blackgrass” value (blackgrass [2]; Rate 200 g/ha, PREEMERGENCE) was 2 and the “Plant response rating, Wheat” value (wheat; 62 g/ha) was 10. For the same compound, the “Plant response rating, Wheat” value (wheat; 125 g/ha) was 20, the “Plant response rating (0 to 100), Wheat” value (wheat; Rate 16 g/ha) was 10 and the “Plant response rating (0 to 100), Wheat” value (wheat; Rate 31 g/ha) was 10. For the same compound, the “Plant response rating, Bedstraw” value (bedstraw; POSTEMERGENCE, Rate 200 g/ha) was 10, the “Plant response rating, Bedstraw” value (bedstraw; PREEMERGENCE, Rate 50 g/ha) was 4 and the “Plant response rating, Bedstraw” value (bedstraw; Rate 200 g/ha, PREEMERGENCE) was 9. The “Plant response rating Pigweed” value (pigweed; 62 g/ha) was 100, the “Plant response rating Pigweed” value (pigweed; 125 g/ha) was 100 and the “Plant response rating (0 to 100), Pigweed” value (pigweed; Rate 16 g/ha) was 90. For the same compound, the “Plant response rating (0 to 100), Pigweed” value (pigweed; Rate 31 g/ha) was 100, the “Plant response rating, Cotton” value (cotton; 62 g/ha) was 100 and the “Plant response rating, Cotton” value (cotton; 125 g/ha) was 100. For the same compound, the “Plant response rating (0 to 100), Cotton” value (cotton; Rate 16 g/ha) was 100, the “Plant response rating (0 to 100), Cotton” value (cotton; Rate 31 g/ha) was 100 and the “Plant response rating (0 to 100), Barnyardgrass” value (barnyardgrass; Rate 16 g/ha) was 50. For the same compound, the “Plant response rating (0 to 100), Barnyardgrass” value (barnyardgrass; Rate 31 g/ha) was 80, the “Plant response rating, Barnyardgrass” value (barnyardgrass; 62 g/ha) was 90 and the “Plant response rating, Barnyardgrass” value (barnyardgrass; 125 g/ha) was 95. The “Plant response rating, Wild oat” value (wild oat; POSTEMERGENCE, Rate 50 g/ha) was 3, the “Plant response rating, Wild oat” value (wild oat; PREEMERGENCE, Rate 50 g/ha) was 0 and the “Plant response rating, Wild oat” value (wild oat; Rate 200 g/ha, POSTEMERGENCE) was 3.
